Source: patent publication US5300491A, “Treatment of protozoal infection” (priority 1992, dated 1994)
Where two headings read alike, the source gives them in different places.

System: Entamoeba histolytica
Type: cell-based
From the text: E. histolytica isolates representing three distinct zymodemes (I, II or XIV) were derived from a range of geographical locations. The patients from whom the isolates were obtained were either pathogenic (i.e. presented dysentery), or non-pathogenic (i.e., presented a non-dysenteric stage of infection characterized by passing of cysts or trophozoites). The following table identifies the E. histolytica isolates in accordance with the above criteria:
Each isolate was a xenic culture, i.e., it contained, in addition to the E. histolytica amoeba, the normally occurring patient faecal microflora. The cultures were maintained according to the method of Robinson, Trans. Roy. Soc. Trop. Med. Hyg. 62, 285-94, (1968). Bacitracin (70 I.U./mg) and its zinc salt (65 I.U./mg) were obtained from Apothekernes Laboratorium A.S (Oslo, Norway). Following microtitre-assay standardization and pilot testing of the drugs (results not presented), the following assay procedure was established. Bacitracin was screened over the range of 20.0-0.625 mg/ml by doubling dilution. 30 mg/ml bacitracin was also examined. […] The remaining wells were run as controls. An initial stock solution of 75 mg/ml bacitracin was prepared in starch-free Robinson medium (SFRM) . Subsequent to loading the first set of wells, the stock was diluted with SFRM to 50 mg/ml, which was used to prepare the remaining concentrations. […] 100 μl volumes of both drugs were then double-diluted in SFRM to provide 2.5X concentrates of the required final concentrations in the microtitre plates. 50 μl of a 25 mg% starch (BDH) solution (in SFRM) was then added to each well. 16-18 hours before the end of the required 48-hour culture period, the amoeba isolates were passaged to fresh tubes containing starch-free Robinson medium. At the end of the culture period, the amoebae were harvested in a small volume of medium and resuspended in at least 20 volumes SFRM. The suspensions were centrifuged at 1000 rpm for 5 minutes prior to re-suspension in fresh medium and counted in a modified Neubauer chamber. Amoebae were centrifuged as before and the pellet resuspended to a concentration of 2.5×10^4 /ml SFRM. 100 μl aliquots were then pipetted into respective wells to provide duplicate cultures of each isolate for each concentration assayed. The plates were then placed in an anaerobic chamber (HP11, Oxoid) at 37° C. for 24 hours. While this procedure provided sufficient starch for the amoebae, the concentration was such that at 24 hours the plates were easily read and quantitified by direct observation using an inverted microscope. Viability was assessed by the addition of Trypan blue to a final concentration of 0.1%.
Readings from each of the studies were collected and stored until all three experiments were completed in order to reduce any bias in subsequent readings. Minimun inhibitory and minimum lethal concentrations were given in mg/ml. […]

[1] = span over all xenic isolates and studies
[2] = xenic isolate 70k, Experiment 1
[3] = xenic isolate 70k, Experiment 2
[4] = xenic isolate 70k, Experiment 3
[5] = xenic isolate 116k, Experiment 1
[6] = xenic isolate 116k, Experiment 2
[7] = xenic isolate 116k, Experiment 3
[8] = xenic isolate 418, Experiment 1
[9] = xenic isolate 418, Experiment 2
[10] = xenic isolate 418, Experiment 3
[11] = xenic isolate 1246, Experiment 1
[12] = xenic isolate 1246, Experiment 2
[13] = xenic isolate 1246, Experiment 3
[14] = xenic isolate AiDO, Experiment 1
[15] = xenic isolate AiDO, Experiment 2
[16] = xenic isolate AiDO, Experiment 3
[17] = xenic isolate BiLO, Experiment 1
[18] = xenic isolate BiLO, Experiment 3
[19] = xenic isolate DOGO, Experiment 1
[20] = xenic isolate DOGO, Experiment 2
[21] = xenic isolate DOGO, Experiment 3
[22] = xenic isolate OMAk, Experiment 1
[23] = xenic isolate OMAk, Experiment 3
[24] = xenic isolate Sh2, Experiment 1
[25] = xenic isolate Sh2, Experiment 2
[26] = xenic isolate Sh2, Experiment 3
[27] = xenic isolate T2k, Experiment 1
[28] = xenic isolate T2k, Experiment 2
[29] = xenic isolate T2k, Experiment 3
[30] = xenic isolate URU1, Experiment 1
[31] = xenic isolate URU1, Experiment 2
[32] = xenic isolate URU1, Experiment 3
[33] = xenic isolate URU19, Experiment 1
[34] = xenic isolate URU19, Experiment 3

Question: Which results are given for Zinc bacitracin?
Answer: concentration at which precipitation occurred (in the xenic culture assay medium): ≥ 5000 µg/mL; MICs [1]: 0.16 to 1.25 mg/mL; MLCs [1]: 1.25 to 5.0 mg/mL; Minimum Lethal Concentration (MLC) (xenic Isolate 1, single study over a narrower range of drug concentration (Table 4)): 1600 µg/mL; Minimum Lethal Concentration (MLC) (xenic Isolate C1, single study over a narrower range of drug concentration (Table 4)): 1400 µg/mL; Minimum Inhibitory Concentration (MIC) (xenic isolate 1, Experiment 1): 630 µg/mL; Minimum Lethal Concentration (MLC) (xenic isolate 1, Experiment 1): 2500 µg/mL; Minimum Inhibitory Concentration (MIC) (xenic isolate 1, Experiment 2): 1250 µg/mL; Minimum Lethal Concentration (MLC) (xenic isolate 1, Experiment 2): 2500 µg/mL; Minimum Inhibitory Concentration (MIC) (xenic isolate 1, Experiment 3): 310 µg/mL; Minimum Lethal Concentration (MLC) (xenic isolate 1, Experiment 3): 2500 µg/mL; Minimum Inhibitory Concentration (MIC) [2]: 630 µg/mL; Minimum Lethal Concentration (MLC) [2]: 2500 µg/mL; Minimum Inhibitory Concentration (MIC) [3]: 630 µg/mL; Minimum Lethal Concentration (MLC) [3]: 2500 µg/mL; Minimum Inhibitory Concentration (MIC) [4]: 630 µg/mL; Minimum Lethal Concentration (MLC) [4]: 2500 µg/mL; Minimum Inhibitory Concentration (MIC) [5]: 630 µg/mL; Minimum Lethal Concentration (MLC) [5]: 2500 µg/mL; Minimum Inhibitory Concentration (MIC) [6]: 310 µg/mL; Minimum Lethal Concentration (MLC) [6]: 1250 µg/mL; Minimum Inhibitory Concentration (MIC) [7]: 310 µg/mL; Minimum Lethal Concentration (MLC) [7]: 2500 µg/mL; Minimum Inhibitory Concentration (MIC) [8]: 630 µg/mL; Minimum Lethal Concentration (MLC) [8]: 5000 µg/mL; Minimum Inhibitory Concentration (MIC) [9]: 310 µg/mL; Minimum Lethal Concentration (MLC) [9]: 2500 µg/mL; Minimum Inhibitory Concentration (MIC) [10]: 310 µg/mL; Minimum Lethal Concentration (MLC) [10]: 2500 µg/mL; Minimum Inhibitory Concentration (MIC) [11]: 160 µg/mL; Minimum Lethal Concentration (MLC) [11]: 2500 µg/mL; Minimum Inhibitory Concentration (MIC) [12]: 630 µg/mL; Minimum Lethal Concentration (MLC) [12]: 2500 µg/mL; Minimum Inhibitory Concentration (MIC) [13]: 310 µg/mL; Minimum Lethal Concentration (MLC) [13]: 1250 µg/mL; Minimum Inhibitory Concentration (MIC) [14]: 630 µg/mL; Minimum Lethal Concentration (MLC) [14]: 2500 µg/mL; Minimum Inhibitory Concentration (MIC) [15]: 160 µg/mL; Minimum Lethal Concentration (MLC) [15]: 2500 µg/mL; Minimum Inhibitory Concentration (MIC) [16]: 160 µg/mL; Minimum Lethal Concentration (MLC) [16]: 2500 µg/mL; Minimum Inhibitory Concentration (MIC) [17]: 310 µg/mL; Minimum Lethal Concentration (MLC) [17]: 2500 µg/mL; Minimum Inhibitory Concentration (MIC) [18]: 310 µg/mL; Minimum Lethal Concentration (MLC) [18]: 2500 µg/mL; Minimum Inhibitory Concentration (MIC) (xenic isolate C1, Experiment 1): 1250 µg/mL; Minimum Lethal Concentration (MLC) (xenic isolate C1, Experiment 1): 2500 µg/mL; Minimum Inhibitory Concentration (MIC) (xenic isolate C1, Experiment 2): 310 µg/mL; Minimum Lethal Concentration (MLC) (xenic isolate C1, Experiment 2): 2500 µg/mL; Minimum Inhibitory Concentration (MIC) (xenic isolate C1, Experiment 3): 310 µg/mL; Minimum Lethal Concentration (MLC) (xenic isolate C1, Experiment 3): 2500 µg/mL; Minimum Inhibitory Concentration (MIC) (xenic isolate C2, Experiment 1): 630 µg/mL; Minimum Lethal Concentration (MLC) (xenic isolate C2, Experiment 1): 2500 µg/mL; Minimum Inhibitory Concentration (MIC) (xenic isolate C2, Experiment 2): 630 µg/mL; Minimum Lethal Concentration (MLC) (xenic isolate C2, Experiment 2): 2500 µg/mL; Minimum Inhibitory Concentration (MIC) (xenic isolate C2, Experiment 3): 310 µg/mL; Minimum Lethal Concentration (MLC) (xenic isolate C2, Experiment 3): 2500 µg/mL; Minimum Inhibitory Concentration (MIC) (xenic isolate DA, Experiment 1): 630 µg/mL; Minimum Lethal Concentration (MLC) (xenic isolate DA, Experiment 1): 2500 µg/mL; Minimum Inhibitory Concentration (MIC) (xenic isolate DA, Experiment 2): 630 µg/mL; Minimum Lethal Concentration (MLC) (xenic isolate DA, Experiment 2): 2500 µg/mL; Minimum Inhibitory Concentration (MIC) (xenic isolate DA, Experiment 3): 630 µg/mL; Minimum Lethal Concentration (MLC) (xenic isolate DA, Experiment 3): 2500 µg/mL; Minimum Inhibitory Concentration (MIC) [19]: 160 µg/mL; Minimum Lethal Concentration (MLC) [19]: 2500 µg/mL; Minimum Inhibitory Concentration (MIC) [20]: 310 µg/mL; Minimum Lethal Concentration (MLC) [20]: 2500 µg/mL; Minimum Inhibitory Concentration (MIC) [21]: 310 µg/mL; Minimum Lethal Concentration (MLC) [21]: 1250 µg/mL; Minimum Inhibitory Concentration (MIC) (xenic isolate GS, Experiment 1): 630 µg/mL; Minimum Lethal Concentration (MLC) (xenic isolate GS, Experiment 1): 2500 µg/mL; Minimum Inhibitory Concentration (MIC) (xenic isolate GS, Experiment 2): 630 µg/mL; Minimum Lethal Concentration (MLC) (xenic isolate GS, Experiment 2): 2500 µg/mL; Minimum Inhibitory Concentration (MIC) (xenic isolate GS, Experiment 3): 310 µg/mL; Minimum Lethal Concentration (MLC) (xenic isolate GS, Experiment 3): 2500 µg/mL; Minimum Inhibitory Concentration (MIC) (xenic isolate MS, Experiment 1): 630 µg/mL; Minimum Lethal Concentration (MLC) (xenic isolate MS, Experiment 1): 2500 µg/mL; Minimum Inhibitory Concentration (MIC) (xenic isolate MS, Experiment 2): 630 µg/mL; Minimum Lethal Concentration (MLC) (xenic isolate MS, Experiment 2): 1250 µg/mL; Minimum Inhibitory Concentration (MIC) (xenic isolate MS, Experiment 3): 630 µg/mL; Minimum Lethal Concentration (MLC) (xenic isolate MS, Experiment 3): 2500 µg/mL; Minimum Inhibitory Concentration (MIC) [22]: 310 µg/mL; Minimum Lethal Concentration (MLC) [22]: 2500 µg/mL; Minimum Inhibitory Concentration (MIC) [23]: 160 µg/mL; Minimum Lethal Concentration (MLC) [23]: 2500 µg/mL; Minimum Inhibitory Concentration (MIC) (xenic isolate SI, Experiment 1): 630 µg/mL; Minimum Lethal Concentration (MLC) (xenic isolate SI, Experiment 1): 2500 µg/mL; Minimum Inhibitory Concentration (MIC) (xenic isolate SI, Experiment 3): 630 µg/mL; Minimum Lethal Concentration (MLC) (xenic isolate SI, Experiment 3): 2500 µg/mL; Minimum Inhibitory Concentration (MIC) [24]: 630 µg/mL; Minimum Lethal Concentration (MLC) [24]: 2500 µg/mL; Minimum Inhibitory Concentration (MIC) [25]: 630 µg/mL; Minimum Lethal Concentration (MLC) [25]: 2500 µg/mL; Minimum Inhibitory Concentration (MIC) [26]: 310 µg/mL; Minimum Lethal Concentration (MLC) [26]: 2500 µg/mL; Minimum Inhibitory Concentration (MIC) [27]: 630 µg/mL; Minimum Lethal Concentration (MLC) [27]: 5000 µg/mL; Minimum Inhibitory Concentration (MIC) [28]: 310 µg/mL; Minimum Lethal Concentration (MLC) [28]: 5000 µg/mL; Minimum Inhibitory Concentration (MIC) [29]: 160 µg/mL; Minimum Lethal Concentration (MLC) [29]: 2500 µg/mL; Minimum Inhibitory Concentration (MIC) (xenic isolate T4, Experiment 1): 310 µg/mL; Minimum Lethal Concentration (MLC) (xenic isolate T4, Experiment 1): 2500 µg/mL; Minimum Inhibitory Concentration (MIC) (xenic isolate T4, Experiment 2): 310 µg/mL; Minimum Lethal Concentration (MLC) (xenic isolate T4, Experiment 2): 2500 µg/mL; Minimum Inhibitory Concentration (MIC) (xenic isolate T4, Experiment 3): 160 µg/mL; Minimum Lethal Concentration (MLC) (xenic isolate T4, Experiment 3): 2500 µg/mL; Minimum Inhibitory Concentration (MIC) (xenic isolate T6, Experiment 1): 310 µg/mL; Minimum Lethal Concentration (MLC) (xenic isolate T6, Experiment 1): 2500 µg/mL; Minimum Inhibitory Concentration (MIC) (xenic isolate T6, Experiment 2): 630 µg/mL; Minimum Lethal Concentration (MLC) (xenic isolate T6, Experiment 2): 2500 µg/mL; Minimum Inhibitory Concentration (MIC) (xenic isolate T6, Experiment 3): 310 µg/mL; Minimum Lethal Concentration (MLC) (xenic isolate T6, Experiment 3): 2500 µg/mL; Minimum Inhibitory Concentration (MIC) [30]: 630 µg/mL; Minimum Lethal Concentration (MLC) [30]: 2500 µg/mL; Minimum Inhibitory Concentration (MIC) [31]: 1250 µg/mL; Minimum Lethal Concentration (MLC) [31]: 2500 µg/mL; Minimum Inhibitory Concentration (MIC) [32]: 630 µg/mL; Minimum Lethal Concentration (MLC) [32]: 2500 µg/mL; Minimum Inhibitory Concentration (MIC) [33]: 630 µg/mL; Minimum Lethal Concentration (MLC) [33]: 2500 µg/mL; Minimum Inhibitory Concentration (MIC) [34]: 310 µg/mL; Minimum Lethal Concentration (MLC) [34]: 2500 µg/mL
